Activity calls are given as the source filed them.
Columns and labels:
[1] = target: Beta-galactosidase (Escherichia coli, UniProt Q8VNN2); experiment: PubChem AID 485352; type: functional
[2] = target: Hepatocyte nuclear factor 4-alpha (Homo sapiens, UniProt P41235); type: functional, cell-based;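 also: biochemical luminescence-based dose-response counterscreen measuring inhibition of HNF4 dimerization, run alongside a screen for blockers of ABHD5–perilipin-5 interaction; split luciferase complementation of HNF4 fusion proteins in cell lysate measuring dimerization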
[3] = target: T1, Hexokinase HKDC1 (Homo sapiens, UniProt Q2TB90); experiment: HKDC1 hexokinase activators, dose response, biochemical, W721R variant (AID 504730); type: functional
T1 sequence (Q2TB90 whole entry): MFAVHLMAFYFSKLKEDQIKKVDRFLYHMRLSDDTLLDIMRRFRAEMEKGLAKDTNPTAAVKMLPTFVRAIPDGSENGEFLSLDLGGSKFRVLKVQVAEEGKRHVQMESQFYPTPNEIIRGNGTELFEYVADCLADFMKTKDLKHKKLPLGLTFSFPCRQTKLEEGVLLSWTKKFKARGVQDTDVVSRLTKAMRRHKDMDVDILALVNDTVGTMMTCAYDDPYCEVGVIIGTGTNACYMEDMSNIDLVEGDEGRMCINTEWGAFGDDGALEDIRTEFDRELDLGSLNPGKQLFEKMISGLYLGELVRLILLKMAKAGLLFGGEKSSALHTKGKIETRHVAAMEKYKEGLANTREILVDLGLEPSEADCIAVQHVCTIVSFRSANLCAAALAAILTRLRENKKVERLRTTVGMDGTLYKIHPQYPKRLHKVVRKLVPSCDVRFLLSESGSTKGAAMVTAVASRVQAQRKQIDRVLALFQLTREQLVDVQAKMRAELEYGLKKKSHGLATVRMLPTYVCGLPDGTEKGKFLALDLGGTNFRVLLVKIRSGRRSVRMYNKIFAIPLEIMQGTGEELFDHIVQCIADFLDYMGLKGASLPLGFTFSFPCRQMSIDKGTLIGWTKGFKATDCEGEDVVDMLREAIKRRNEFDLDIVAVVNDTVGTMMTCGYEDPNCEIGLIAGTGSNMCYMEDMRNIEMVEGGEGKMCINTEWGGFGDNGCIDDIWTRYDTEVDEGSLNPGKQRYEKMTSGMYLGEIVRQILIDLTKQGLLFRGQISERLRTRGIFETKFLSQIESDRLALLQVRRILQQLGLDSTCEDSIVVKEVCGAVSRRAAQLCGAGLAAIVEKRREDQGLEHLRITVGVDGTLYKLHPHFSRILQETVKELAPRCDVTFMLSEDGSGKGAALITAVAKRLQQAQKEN

[4] = target: T2, Type-1 angiotensin II receptor (Homo sapiens, UniProt P30556); experiment: AT1 receptor antagonists, dose response, selectivity assay for APJ receptor antagonist project, cell-based, uHTS hits (AID 463214); type: functional;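 also: antagonist potency against angiotensin II stimulated AT1 response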
T2 sequence (P30556 whole entry): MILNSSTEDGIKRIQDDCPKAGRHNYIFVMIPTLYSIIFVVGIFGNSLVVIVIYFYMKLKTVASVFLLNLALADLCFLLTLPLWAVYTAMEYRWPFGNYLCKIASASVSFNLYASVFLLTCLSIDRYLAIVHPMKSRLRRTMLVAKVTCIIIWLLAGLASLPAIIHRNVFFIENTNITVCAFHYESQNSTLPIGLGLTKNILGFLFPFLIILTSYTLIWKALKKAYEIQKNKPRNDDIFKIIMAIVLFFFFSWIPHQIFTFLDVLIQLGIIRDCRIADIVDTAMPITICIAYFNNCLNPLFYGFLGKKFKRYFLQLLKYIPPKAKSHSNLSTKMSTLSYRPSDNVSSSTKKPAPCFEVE

[5] = target: T3, Hexokinase-1 (Homo sapiens, UniProt P19367); experiment: hexokinase 1 activators, dose response, selectivity assay for HKDC1 activator project, biochemical (AID 504762); type: functional
T3 sequence (P19367 whole entry): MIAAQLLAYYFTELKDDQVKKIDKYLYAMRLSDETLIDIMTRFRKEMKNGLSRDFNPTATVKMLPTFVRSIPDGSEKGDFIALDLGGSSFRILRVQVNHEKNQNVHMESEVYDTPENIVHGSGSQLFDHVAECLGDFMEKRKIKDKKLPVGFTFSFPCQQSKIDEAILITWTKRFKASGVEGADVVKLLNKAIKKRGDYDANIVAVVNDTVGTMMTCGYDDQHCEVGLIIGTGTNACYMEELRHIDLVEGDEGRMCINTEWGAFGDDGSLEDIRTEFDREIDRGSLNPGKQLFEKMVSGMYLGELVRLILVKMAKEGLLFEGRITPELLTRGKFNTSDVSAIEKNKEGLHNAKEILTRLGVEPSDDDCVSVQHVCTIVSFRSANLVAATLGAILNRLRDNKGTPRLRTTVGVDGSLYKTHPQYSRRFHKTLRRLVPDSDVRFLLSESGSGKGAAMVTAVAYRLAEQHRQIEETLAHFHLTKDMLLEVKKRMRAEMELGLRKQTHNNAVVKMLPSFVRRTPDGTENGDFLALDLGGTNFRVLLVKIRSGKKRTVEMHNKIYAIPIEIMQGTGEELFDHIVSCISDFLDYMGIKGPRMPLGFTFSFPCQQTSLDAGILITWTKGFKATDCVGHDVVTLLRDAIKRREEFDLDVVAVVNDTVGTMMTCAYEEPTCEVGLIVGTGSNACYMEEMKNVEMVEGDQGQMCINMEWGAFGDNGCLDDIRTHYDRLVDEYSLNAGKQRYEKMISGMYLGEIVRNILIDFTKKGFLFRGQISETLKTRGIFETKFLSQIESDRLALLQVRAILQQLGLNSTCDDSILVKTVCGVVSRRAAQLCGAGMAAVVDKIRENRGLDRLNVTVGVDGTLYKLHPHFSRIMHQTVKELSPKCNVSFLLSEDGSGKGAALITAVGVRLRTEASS

[6] = target: T4, RNA-binding protein pos-1 (Caenorhabditis elegans, UniProt G5EF15); experiment: inhibitors of POS-1/mex-3 RNA binding, dose response, biochemical, fluorescence polarization (AID 1964);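 also: purified POS-1 fused to maltose binding protein made in E. coli; potency of compounds blocking POS-1 binding to fluorescent RNA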
T4 sequence (G5EF15 whole entry): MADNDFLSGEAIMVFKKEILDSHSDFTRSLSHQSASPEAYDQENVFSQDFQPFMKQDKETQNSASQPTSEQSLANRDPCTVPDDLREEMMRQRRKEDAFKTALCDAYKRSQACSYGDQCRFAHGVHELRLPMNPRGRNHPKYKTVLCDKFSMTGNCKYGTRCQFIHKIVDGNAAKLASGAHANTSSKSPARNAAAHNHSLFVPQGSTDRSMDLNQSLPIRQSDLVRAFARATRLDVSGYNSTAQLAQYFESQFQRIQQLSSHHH

[7] = target: T5, Endoribonuclease toxin MazF (Escherichia coli K-12, UniProt P0AE70); experiment: fluorescent RNA oligo signal without MazF, dose response, counter-screen for MazEF activator project, biochemical, fluorescence, single-stranded RNase substrate (AID 588502); type: functional
T5 sequence (P0AE70 whole entry): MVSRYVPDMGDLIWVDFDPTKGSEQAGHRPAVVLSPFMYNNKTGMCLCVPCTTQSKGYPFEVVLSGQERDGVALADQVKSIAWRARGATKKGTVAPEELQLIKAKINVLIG

[8] = target: T5, Endoribonuclease toxin MazF; experiment: MazF toxin RNase activators, dose response, biochemical, fluorescence, single-stranded RNA substrate, uHTS hits (AID 588481); type: functional
[9] = tested on: Vero; experiment: cells; type: functional; details: Chlorocebus sabaeus
[10] = target: T6, Zinc finger protein mex-5 (Caenorhabditis elegans, UniProt Q9XUB2); experiment: MEX-5/TCR-2 RNA interaction inhibitors, dose response, biochemical, C. elegans, fluorescence polarization (AID 1960)
T6 sequence (Q9XUB2 whole entry): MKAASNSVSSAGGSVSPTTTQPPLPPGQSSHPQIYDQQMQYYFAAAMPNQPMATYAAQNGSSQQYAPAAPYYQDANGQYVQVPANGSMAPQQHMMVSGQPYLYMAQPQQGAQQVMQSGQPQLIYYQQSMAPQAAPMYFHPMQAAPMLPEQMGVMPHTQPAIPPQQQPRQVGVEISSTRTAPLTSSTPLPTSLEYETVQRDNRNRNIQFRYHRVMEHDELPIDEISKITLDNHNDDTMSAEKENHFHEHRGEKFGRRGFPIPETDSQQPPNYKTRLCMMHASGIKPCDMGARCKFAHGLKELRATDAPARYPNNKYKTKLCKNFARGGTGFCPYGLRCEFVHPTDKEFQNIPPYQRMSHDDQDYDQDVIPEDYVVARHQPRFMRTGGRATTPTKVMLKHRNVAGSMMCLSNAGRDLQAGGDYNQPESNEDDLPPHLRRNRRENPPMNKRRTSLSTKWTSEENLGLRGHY

[11] = target: T7, Beta-lactamase (Pseudomonas aeruginosa, UniProt Q79MP6); experiment: IMP-1 metallo-beta-lactamase inhibitors, dose response, selectivity assay for VIM-2 inhibitor project, biochemical, epi-absorbance (AID 1920)
[12] = target: Beta-lactamase (Salmonella choleraesuis (strain SC-B67), UniProt Q5J463); experiment: Epi-absorbance-based counterscreen for selective VIM-2 inhibitors: dose response biochemical high throughput screening assay to identify inhibitors of TEM-1 serine-beta-lactamase.
[13] = target: T7, Beta-lactamase; experiment: […] counterscreen for selective VIM-2 inhibitors: dose response biochemical high throughput screening assay to identify inhibitors of IMP-1 metallo-beta-lactamase.
[14] = target: Tyrosine-protein phosphatase non-receptor type 11 (Homo sapiens, UniProt Q06124); experiment: SHP2 phosphatase inhibition, dose response, selectivity assay for STEP inhibitor project, biochemical (AID 602367); type: functional; details: read-out: IC50_Mean
[15] = target: Tyrosine-protein phosphatase non-receptor type 5 (Homo sapiens, UniProt P54829); experiment: STEP phosphatase inhibitors, confirmation, biochemical, fluorescence intensity, uHTS hits (AID 602372); type: functional; details: read-out: IC50_Mean
[16] = target: T8, Tyrosine-protein phosphatase non-receptor type 22 (Homo sapiens, UniProt Q9Y2R2); experiment: PTPN22 phosphatase inhibition, dose response, selectivity assay for STEP inhibitor project, biochemical (AID 624241); type: functional
T8 sequence (Q9Y2R2 whole entry): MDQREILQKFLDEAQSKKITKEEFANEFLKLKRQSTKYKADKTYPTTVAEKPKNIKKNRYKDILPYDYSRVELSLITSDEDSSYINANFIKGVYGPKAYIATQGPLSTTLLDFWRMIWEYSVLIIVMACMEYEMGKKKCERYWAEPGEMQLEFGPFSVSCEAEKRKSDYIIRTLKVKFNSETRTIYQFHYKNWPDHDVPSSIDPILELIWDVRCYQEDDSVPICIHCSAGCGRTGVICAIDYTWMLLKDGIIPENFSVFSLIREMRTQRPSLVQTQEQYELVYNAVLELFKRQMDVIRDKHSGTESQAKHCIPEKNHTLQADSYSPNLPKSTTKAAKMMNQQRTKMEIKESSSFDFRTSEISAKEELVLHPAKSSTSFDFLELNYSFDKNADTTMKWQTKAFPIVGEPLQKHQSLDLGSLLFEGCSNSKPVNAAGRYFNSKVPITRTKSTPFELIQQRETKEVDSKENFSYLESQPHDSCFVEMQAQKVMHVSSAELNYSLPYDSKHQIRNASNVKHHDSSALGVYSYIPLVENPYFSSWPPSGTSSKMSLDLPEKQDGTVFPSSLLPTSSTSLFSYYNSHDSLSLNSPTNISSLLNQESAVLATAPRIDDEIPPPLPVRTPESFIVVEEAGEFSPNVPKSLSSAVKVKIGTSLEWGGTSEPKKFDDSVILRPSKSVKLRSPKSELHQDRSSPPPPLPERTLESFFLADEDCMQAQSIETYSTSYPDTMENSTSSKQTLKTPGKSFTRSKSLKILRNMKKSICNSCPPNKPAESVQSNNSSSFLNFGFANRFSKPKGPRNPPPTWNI

[17] = target: Dual specificity protein phosphatase 3 (Homo sapiens, UniProt P51452); experiment: VHR phosphatase inhibition, dose response, selectivity assay for STEP inhibitor project, biochemical (AID 602374); type: functional; details: read-out: IC50_Mean
[18] = target: 5-hydroxytryptamine receptor 2A (Mus musculus, UniProt P35363); type: functional, cell-based;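 also: CHO-K1 cells with tagged receptor and beta-arrestin; agonist potency measured as compound-induced activation of the receptor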
[19] = target: Mu-type opioid receptor (Homo sapiens, UniProt P35372); type: functional, cell-based;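 also: U2OS cells with beta-arrestin recruitment to OPRM1 by beta-gal complementation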
Mu-type opioid receptor, sequence (P35372 whole entry): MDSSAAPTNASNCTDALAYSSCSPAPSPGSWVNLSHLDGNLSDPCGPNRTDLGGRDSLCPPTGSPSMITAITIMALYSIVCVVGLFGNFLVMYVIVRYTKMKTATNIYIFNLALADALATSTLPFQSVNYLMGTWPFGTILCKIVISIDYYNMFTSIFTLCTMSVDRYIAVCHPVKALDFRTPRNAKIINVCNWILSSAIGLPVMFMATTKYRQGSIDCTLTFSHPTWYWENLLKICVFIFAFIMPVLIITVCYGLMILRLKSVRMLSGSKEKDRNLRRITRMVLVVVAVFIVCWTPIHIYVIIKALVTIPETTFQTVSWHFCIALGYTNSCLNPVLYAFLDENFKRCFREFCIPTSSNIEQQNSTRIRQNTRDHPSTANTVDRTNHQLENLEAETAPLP

T7 sequence (Q79MP6 whole entry): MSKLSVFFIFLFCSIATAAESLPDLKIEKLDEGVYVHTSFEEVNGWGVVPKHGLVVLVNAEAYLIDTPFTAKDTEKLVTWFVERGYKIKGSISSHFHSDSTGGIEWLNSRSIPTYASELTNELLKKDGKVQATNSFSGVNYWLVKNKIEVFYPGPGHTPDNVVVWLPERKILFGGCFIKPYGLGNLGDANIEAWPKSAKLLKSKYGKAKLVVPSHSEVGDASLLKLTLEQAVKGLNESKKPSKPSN
Hepatocyte nuclear factor 4-alpha, sequence (P41235 whole entry, the tested form may be a part): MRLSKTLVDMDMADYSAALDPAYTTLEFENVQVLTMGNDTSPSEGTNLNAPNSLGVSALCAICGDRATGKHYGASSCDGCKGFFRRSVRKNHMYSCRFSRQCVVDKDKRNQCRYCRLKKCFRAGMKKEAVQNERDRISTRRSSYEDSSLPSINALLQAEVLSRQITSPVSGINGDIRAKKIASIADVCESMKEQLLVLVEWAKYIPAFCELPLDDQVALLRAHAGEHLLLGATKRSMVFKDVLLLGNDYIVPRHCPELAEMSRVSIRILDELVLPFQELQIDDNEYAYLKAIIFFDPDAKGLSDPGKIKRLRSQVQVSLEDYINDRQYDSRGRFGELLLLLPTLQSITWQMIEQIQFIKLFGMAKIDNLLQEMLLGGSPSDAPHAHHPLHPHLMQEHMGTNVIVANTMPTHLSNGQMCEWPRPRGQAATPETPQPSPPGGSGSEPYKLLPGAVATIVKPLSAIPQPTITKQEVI
Tyrosine-protein phosphatase non-receptor type 11, sequence (Q06124 whole entry): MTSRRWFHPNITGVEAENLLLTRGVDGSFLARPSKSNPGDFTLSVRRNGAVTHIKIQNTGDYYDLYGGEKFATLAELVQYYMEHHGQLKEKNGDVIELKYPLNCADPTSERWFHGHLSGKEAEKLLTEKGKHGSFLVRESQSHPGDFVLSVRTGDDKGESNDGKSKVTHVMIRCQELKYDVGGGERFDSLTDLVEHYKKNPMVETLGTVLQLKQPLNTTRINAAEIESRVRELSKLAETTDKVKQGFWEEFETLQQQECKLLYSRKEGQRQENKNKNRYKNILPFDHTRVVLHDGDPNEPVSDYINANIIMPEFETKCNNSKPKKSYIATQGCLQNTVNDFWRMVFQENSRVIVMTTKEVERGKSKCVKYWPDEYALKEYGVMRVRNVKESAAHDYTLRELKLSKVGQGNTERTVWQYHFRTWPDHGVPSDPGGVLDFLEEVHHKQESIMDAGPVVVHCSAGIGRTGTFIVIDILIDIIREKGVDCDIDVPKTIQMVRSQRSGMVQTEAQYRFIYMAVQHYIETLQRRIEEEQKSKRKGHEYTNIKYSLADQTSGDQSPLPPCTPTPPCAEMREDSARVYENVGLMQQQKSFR
Dual specificity protein phosphatase 3, sequence (P51452 whole entry): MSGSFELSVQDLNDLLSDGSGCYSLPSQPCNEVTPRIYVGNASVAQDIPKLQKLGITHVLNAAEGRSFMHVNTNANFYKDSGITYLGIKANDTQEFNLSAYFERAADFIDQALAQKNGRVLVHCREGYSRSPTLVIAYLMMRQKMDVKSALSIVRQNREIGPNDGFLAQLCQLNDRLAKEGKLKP
Beta-galactosidase, sequence (Q8VNN2 whole entry, the tested form may be a part): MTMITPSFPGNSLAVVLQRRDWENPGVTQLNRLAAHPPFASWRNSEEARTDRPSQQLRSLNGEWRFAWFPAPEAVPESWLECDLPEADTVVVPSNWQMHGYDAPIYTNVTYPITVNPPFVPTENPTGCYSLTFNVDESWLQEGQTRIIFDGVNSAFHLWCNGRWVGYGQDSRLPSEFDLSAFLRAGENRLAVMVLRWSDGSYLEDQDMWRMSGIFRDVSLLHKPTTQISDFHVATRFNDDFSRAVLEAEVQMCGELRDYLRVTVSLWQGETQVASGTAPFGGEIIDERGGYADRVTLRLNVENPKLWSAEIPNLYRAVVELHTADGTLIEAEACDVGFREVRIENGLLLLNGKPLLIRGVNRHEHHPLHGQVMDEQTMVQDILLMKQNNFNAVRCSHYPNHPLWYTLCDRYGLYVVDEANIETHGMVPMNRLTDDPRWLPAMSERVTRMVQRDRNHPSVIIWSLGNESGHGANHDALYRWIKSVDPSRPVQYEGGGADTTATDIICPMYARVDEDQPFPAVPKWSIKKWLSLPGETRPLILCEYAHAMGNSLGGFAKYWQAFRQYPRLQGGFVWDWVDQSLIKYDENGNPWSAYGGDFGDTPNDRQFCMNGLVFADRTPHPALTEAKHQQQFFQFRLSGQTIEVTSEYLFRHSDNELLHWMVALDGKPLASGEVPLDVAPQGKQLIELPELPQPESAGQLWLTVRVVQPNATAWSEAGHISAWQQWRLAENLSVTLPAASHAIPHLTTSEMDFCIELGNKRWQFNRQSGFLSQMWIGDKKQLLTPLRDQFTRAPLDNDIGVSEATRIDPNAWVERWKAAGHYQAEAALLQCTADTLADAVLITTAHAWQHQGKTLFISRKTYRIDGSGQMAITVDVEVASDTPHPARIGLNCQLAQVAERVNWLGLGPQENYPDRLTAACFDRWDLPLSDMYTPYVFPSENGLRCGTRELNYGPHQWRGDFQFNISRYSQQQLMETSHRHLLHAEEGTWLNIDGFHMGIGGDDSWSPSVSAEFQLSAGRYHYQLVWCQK
Beta-lactamase (Salmonella choleraesuis (strain SC-B67), UniProt Q5J463), sequence (Q5J463 whole entry): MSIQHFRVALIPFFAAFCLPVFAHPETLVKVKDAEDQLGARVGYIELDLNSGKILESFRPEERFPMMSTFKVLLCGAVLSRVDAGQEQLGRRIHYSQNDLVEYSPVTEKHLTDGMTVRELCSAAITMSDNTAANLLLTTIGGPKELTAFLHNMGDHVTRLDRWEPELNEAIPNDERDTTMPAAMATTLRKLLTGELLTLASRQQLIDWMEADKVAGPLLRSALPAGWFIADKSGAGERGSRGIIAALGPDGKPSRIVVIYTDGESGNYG
Tyrosine-protein phosphatase non-receptor type 5, sequence (P54829 whole entry): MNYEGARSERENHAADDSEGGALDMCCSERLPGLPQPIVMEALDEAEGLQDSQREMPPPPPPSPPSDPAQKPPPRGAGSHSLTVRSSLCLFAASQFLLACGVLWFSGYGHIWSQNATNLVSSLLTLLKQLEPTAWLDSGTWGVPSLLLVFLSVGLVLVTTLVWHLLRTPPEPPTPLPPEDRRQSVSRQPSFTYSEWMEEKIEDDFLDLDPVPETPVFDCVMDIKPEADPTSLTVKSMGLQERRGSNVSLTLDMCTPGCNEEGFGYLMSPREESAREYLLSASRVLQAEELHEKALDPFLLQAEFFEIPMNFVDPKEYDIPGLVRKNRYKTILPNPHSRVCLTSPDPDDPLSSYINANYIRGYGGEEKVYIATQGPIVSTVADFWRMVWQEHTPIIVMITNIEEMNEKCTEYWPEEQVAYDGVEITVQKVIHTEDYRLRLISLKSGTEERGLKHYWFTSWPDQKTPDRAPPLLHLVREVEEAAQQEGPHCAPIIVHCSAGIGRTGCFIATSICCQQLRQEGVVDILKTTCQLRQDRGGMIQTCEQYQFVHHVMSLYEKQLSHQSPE
5-hydroxytryptamine receptor 2A, sequence (P35363 whole entry): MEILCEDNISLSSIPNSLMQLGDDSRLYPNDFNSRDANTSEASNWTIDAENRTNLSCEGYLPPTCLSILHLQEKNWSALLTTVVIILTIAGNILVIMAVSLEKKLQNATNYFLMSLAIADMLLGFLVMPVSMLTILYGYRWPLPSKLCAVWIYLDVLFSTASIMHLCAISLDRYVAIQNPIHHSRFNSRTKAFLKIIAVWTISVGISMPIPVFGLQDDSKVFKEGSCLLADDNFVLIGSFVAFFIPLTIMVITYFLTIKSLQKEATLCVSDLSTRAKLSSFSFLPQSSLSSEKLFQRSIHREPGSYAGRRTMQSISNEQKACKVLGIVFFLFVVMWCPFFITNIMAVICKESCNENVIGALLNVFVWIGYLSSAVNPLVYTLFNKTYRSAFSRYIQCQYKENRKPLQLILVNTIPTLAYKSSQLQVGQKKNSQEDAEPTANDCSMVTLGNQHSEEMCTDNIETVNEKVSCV

SMILES: CC(=O)C1=C(c2cccc([N+](=O)[O-])c2)N(C(C)=O)n2c(C)nnc2S1
- EC50 [1]: 15 µM (active)
- IC50 [2]: 4.27 µM (active)
- EC50 [3]: 8.32 µM (active)
- IC50 [4]: 8.72 µM (active)
- EC50 [5]: 6.54 µM (active)
- EC50 [6]: 44.2 µM (active)
- EC50 [7]: 45.2 µM (inactive)
- EC50 [8]: 20.5 µM (inactive)
- CC50 [9]: 24.4 µM (active)
- EC50 [10]: > 300 µM (inconclusive)

SMILES: CCN(CC)C(=O)CSc1nc2ccc(NC(=O)CSc3nccn3C)cc2s1
- IC50 [11]: > 59.6 µM (inactive)
- IC50 [12]: > 59.6 µM (inactive)
- IC50 [13]: > 59.6 µM (inactive)

SMILES: CCC(CC)c1nnc(NC(=O)c2cc(C(=O)OC)cc([N+](=O)[O-])c2)s1
- IC50 [14]: 2.28 µM (active)
- IC50 [15]: 8.62 µM (active)
- IC50 [16]: 75.6 µM (inactive)
- IC50 [17]: 0.567 µM (active)

SMILES: COc1ccc(C)cc1NC(=O)CCN1CCN(c2ccccc2F)CC1
- EC50 [18]: 76.1 µM (inactive)
- EC50 [19]: 92.5 µM (inactive)

— ChEMBL document CHEMBL1201862, “PubChem BioAssay data set” (2004)
